Columns and labels:
[1] = Viscosity of the mixed composition (Brookfield digital viscometer); assay type: physicochemical; conditions: for Viscosity of the mixed composition: acid replacing citric acid in activated flux of Example 1, relative scale; for Viscosity trend versus composition without stabilizing agent: time following mixing
[2] = Stability / pot life of the mixed composition held at room temperature; conditions: in fluxing component of the two-component composition
Protocol: The two components were mixed at a proportion of 3.6:1 (by weight). The mixed composition was held at room temperature and its viscosity was measured hourly by Brookfield digital viscometer. Following each viscosity measurement, a line was printed on a glass substrate, the line being 50 mm long, 2 mm wide, and 40 μm thick. The printed ink was then sintered in a forced-air oven at 150° C. and the resistance of the obtained printed line was measured.

Row | Viscosity of the mixed composition [1] | SMILES | further results
1 | 1 | O=C(O)/C=C/C(=O)O [Fumaric, fumaric acid] | 
2 | 5 | O=C(O)/C=C\C(=O)O [Maleic, maleic acid] | 
3 | 1 | O=C(O)C(=O)O [Oxalic, Oxalic acid] | Viscosity behaviour at room temperature following mixing [1]: increased within a few minutes such that it was not suitable for printing
4 | 5 | O=C(O)C(O)C(O)C(=O)O (stereo not shown) [Tartaric, tartaric acid] | 
5 |  | CCCCCCCCCCCCS [dodecanethiol] | Viscosity trend versus composition without stabilizing agent [1]: smaller viscosity increase
6 |  | CCCCCCCCS [octanethiol] | Effect of the stabilizing agent on pot life [2]: extend the pot life; Viscosity trend versus composition without stabilizing agent [1]: smaller viscosity increase
7 |  | NC(N)=S [thiourea] | Effect of the stabilizing agent on pot life [2]: extending the pot life

Row | SMILES | Viscosity of the mixed composition [1] | further results
8 | CC(=O)O [Acetic, acetic acid] | 5 | 

From patent US10982109B2, “Two-component printable conductive composition” (PRINTCB LTD., priority 2018, dated 2021)
